According to US20120010075A1 (priority 2009, published 2012):
Where a name gives a salt, the structure may show the parent alone. Read-outs that look alike come from different tables or passages of the source.

Legend:
[1] = tested on: Phytophthora infestans; format: in vivo, Phytophthora infestans on tomato; conditions: applied 24 h before inoculation, assessed 7 days after inoculation
[2] = tested on: Leptosphaeria nodorum (LEPTNO); assay: In vitro fungitoxicity of hydrazones with and without copper towards Leptosphaeria nodorum (Example 26); format: cell-based; conditions: 72 h at 25° C.; for inhibition of growth at 0.05 µg/mL: Parastagonospora nodorum, 72 h, read-out: LEPTNO % Inhn. Minus Copper Observed; for inhibition of growth at 0.05 µg/mL / LEPTNO % Inhn. Minus Copper Observed: copper-minus medium
[3] = hydrazone 50 ppm + 50 μM CuCl2.2H2O, tomato
[4] = compound 0.05 μg/mL, copper-plus medium (CuCl2.2H2O)
[5] = hydrazone 50 ppm with 50 μM CuCl2.2H2O, tomato late blight
[6] = test compound Concn. 0.05 μg/mL
[7] = copper-plus medium (CuCl2 10 μM), test compound Concn. 0.05 μg/mL

Structure (SMILES) | melting point [°C] | TLB % Control [1, 3] [%] | inhibition of growth at 0.05 µg/mL ([2]; compound 0.05 μg/mL) [%] | LEPTNO % Inhn. Plus Copper Observed [2, 4] [%] | LEPTNO % Inhn. Minus Copper Observed ([2]; compound 0.05 μg/mL) [%] | TLB % Control [1, 5] [%] | inhibition of growth at 0.05 µg/mL [2, 6] [%] | LEPTNO % Inhn. Plus Copper Observed [2, 7] [%]
C/C(=N\NC(=O)c1ccccc1O)c1cc(C(F)(F)F)ccc1O (as salt: Na) [Example 538] | 277 to 297 | – | – | – | – | – | – | –
O=C(N/N=C/c1cc(Cl)ccc1O)c1cccc([N+](=O)[O-])c1 [Example 10] | 224 to 227 | 96.0 | 6.9 | 97.2 | – | – | – | –
O=C(N/N=C/c1cc(Cl)ccc1O)c1ccc([N+](=O)[O-])cc1 [Example 12] | 259 to 262 | 94.0 | 0.5 | 97.4 | – | – | – | –
C/C(=N\NC(=O)Cc1ccc(F)cc1)c1cc(Cl)cc(Cl)c1O [Example 17] | 209 to 213 | 69.0 | 9.4 | 95.9 | – | – | – | –
Cc1ccc(C)c(C(=O)N/N=C/c2cc(Cl)cc(Cl)c2O)c1 [Example 23] | 169 to 172 | 53.3 | – | – | – | – | – | –
Cc1ccc(C(=O)N/N=C/c2cc(Cl)cc(Cl)c2O)c(C)c1 [Example 27] | 246 to 247 | 43.3 | 16.5 | 97.9 | – | – | – | –
CC/C(=N\NC(=O)c1ccc(C)cc1C)c1ccccc1O [Example 30] | 159 to 160 | 40.7 | 0 | 97.0 | – | – | – | –
Cc1ccc(C(=O)N/N=C(\CCc2ccccc2)c2ccccc2O)c(C)c1 [Example 31] | 143 to 145 | 33.3 | 2.2 | 89.0 | – | – | – | –
Cc1ccc(C(=O)N/N=C/c2cc(Br)cc(Br)c2O)c(C)c1 [Example 32] | 192 to 194 | 74.6 | – | 94.4 | 0.0 | – | – | –
C/C(=N\NC(=O)c1ccc(C)cc1C)c1ccccc1O [Example 33] | 188 to 190 | 50.9 | – | 93.1 | 0.0 | – | – | –
CC/C(=N\NC(=O)c1ccc(C)cc1C)c1ccccc1O [Example 34] | 175 to 176 | 68.4 | – | 97.8 | 0.0 | – | – | –
Cc1ccc(C(=O)N/N=C(\CCc2ccccc2)c2ccccc2O)c(C)c1 [Example 35] | 162 to 166 | 0.0 | – | 96.5 | 3.8 | – | – | –
CC(C)c1ccc(C(=O)N/N=C/c2cc(Cl)cc(Cl)c2O)cc1 [Example 41] | 261 to 263 | 87.0 | – | 97.2 | 0.0 | – | – | –
CC(C)c1ccc(C(=O)N/N=C/c2cc(Cl)cc(Cl)c2O)cc1 [Example 42] | 270 to 272 | 60.0 | – | 93.2 | 9.2 | – | – | –
CC/C(=N\NC(=O)c1cccc(Oc2ccccc2)c1)c1ccccc1O [Example 44] | 148 to 163 | 0.7 | 0.3 | 93.0 | – | – | – | –
O=C(N/N=C(\CCc1ccccc1)c1ccccc1O)c1c(Cl)cccc1Cl [Example 45] | 204 to 208 | 49.0 | 0 | 96.2 | – | – | – | –
O=C(N/N=C/c1cc(Cl)cc(Cl)c1O)c1cccc(Oc2ccccc2)c1 [Example 46] | 170 to 171 | 72.7 | 20.5 | 95.9 | – | – | – | –
C/C(=N\NC(=O)c1cccc(Oc2ccccc2)c1)c1ccccc1O [Example 47] | 178 to 180 | 33.0 | 0 | 97.1 | – | – | – | –

Structure (SMILES) | melting point [°C] | TLB % Control [1, 3] [%] | inhibition of growth at 0.05 µg/mL ([2]; compound 0.05 μg/mL) [%] | LEPTNO % Inhn. Plus Copper Observed [2, 4] [%] | LEPTNO % Inhn. Minus Copper Observed ([2]; compound 0.05 μg/mL) [%] | TLB % Control [1, 5] [%] | inhibition of growth at 0.05 µg/mL [2, 6] [%] | LEPTNO % Inhn. Plus Copper Observed [2, 7] [%]
CC/C(=N\NC(=O)c1c(Cl)cccc1Cl)c1ccccc1O [Example 48] | 181 to 184 | 40.0 | 0.3 | 94.6 | – | – | – | –
O=C(N/N=C(\CCc1ccccc1)c1ccccc1O)c1ccccc1Cl [Example 49] | 173 to 177 | 0.7 | 14.6 | 97.1 | – | – | – | –
C/C(=N\NC(=O)c1ccccc1Br)c1cc(Cl)cc(Cl)c1O [Example 57] | 220 to 222 | 89.5 | 0 | 97.3 | – | – | – | –
C/C(=N\NC(=O)c1ccccc1C(F)(F)F)c1ccccc1O [Example 58] | 208 to 210 | 49.0 | 0 | 95.0 | – | – | – | –
Cc1cccc(C(=O)N/N=C/c2cc(Cl)cc(Cl)c2O)c1O [Example 73] | 202 to 209 | 87.3 | 8.6 | 98.0 | – | – | – | –
O=C(N/N=C/c1cc(Cl)cc(Cl)c1O)c1cc(Cl)cc(Cl)c1 [Example 79] | 248 to 249 | 84.4 | 12.2 | 97.1 | – | – | – | –
C/C(=N\NC(=O)c1ccccc1O)c1ccccc1O [Example 213] | – | 56.1 | 3.7 | 98.8 | – | – | – | –
COc1ccc(C(=O)N/N=C(\C)c2ccccc2O)cc1 [Example 214] | – | 60.0 | 7 | 98.0 | – | – | – | –
C/C(=N\NC(=O)c1ccc([N+](=O)[O-])cc1)c1ccccc1O [Example 215] | – | 37.0 | 0.5 | 98.6 | – | – | – | –
C/C(=N\NC(=O)c1ccc(Cl)cc1Cl)c1ccccc1O [Example 216] | – | 57.9 | 6.3 | 98.4 | – | – | – | –
C/C(=N\NC(=O)c1ccc(Cl)cc1)c1cc(Br)ccc1O [Example 293] | – | 19.0 | 7.9 | 95.7 | – | – | – | –
O=C(N/N=C/c1ccc(Cl)cc1O)c1cccc(Cl)c1 [Example 391] | – | – | – | – | – | 92.0 | 6 | 96.9
Cc1ccc(C(=O)N/N=C/c2ccc(Cl)cc2O)c(O)c1 [Example 397] | 283 to 287 | – | – | – | – | 6.7 | – | –
C/C(=N\NC(=O)c1ccc2ccccc2c1O)c1cc(Cl)cc(Cl)c1O [Example 480] | – | – | – | – | – | 4.7 | 9.5 | 95.3
C/C(=N\NC(=O)c1ccccc1)c1cc(Cl)ccc1O [Example 504] | – | – | – | – | – | 94.0 | 1.3 | 97.6
COc1cc(O)c(/C(C)=N/NC(=O)c2ccccc2)c(OC)c1 [Example 526] | – | – | – | – | – | 41.0 | 1.8 | 16.2
C/C(=N\NC(=O)c1ccccc1O)c1cc(C(F)(F)F)ccc1O [Example 538] | – | – | – | – | – | 44.0 | 12.4 | 96.5
CC(C)/C(=N\NC(=O)c1ccccc1)c1cc(Cl)cc(Cl)c1O [Example 588] | – | – | – | – | – | 5.6 | 7.6 | 96.3
